Results on 13 molecules are retold here after patent publication US11739098B2 (BRISTOL-MYERS SQUIBB COMPANY, priority 2017, dated 2023).

What all share (type): cell-based
In one assay the target is T1, human TLR8 (Homo sapiens, UniProt Q9NR97).
T1 construct: host or cells: HEK-Blue cells (HEK293-derived reporter line)
T1 sequence (Q9NR97 27-1041): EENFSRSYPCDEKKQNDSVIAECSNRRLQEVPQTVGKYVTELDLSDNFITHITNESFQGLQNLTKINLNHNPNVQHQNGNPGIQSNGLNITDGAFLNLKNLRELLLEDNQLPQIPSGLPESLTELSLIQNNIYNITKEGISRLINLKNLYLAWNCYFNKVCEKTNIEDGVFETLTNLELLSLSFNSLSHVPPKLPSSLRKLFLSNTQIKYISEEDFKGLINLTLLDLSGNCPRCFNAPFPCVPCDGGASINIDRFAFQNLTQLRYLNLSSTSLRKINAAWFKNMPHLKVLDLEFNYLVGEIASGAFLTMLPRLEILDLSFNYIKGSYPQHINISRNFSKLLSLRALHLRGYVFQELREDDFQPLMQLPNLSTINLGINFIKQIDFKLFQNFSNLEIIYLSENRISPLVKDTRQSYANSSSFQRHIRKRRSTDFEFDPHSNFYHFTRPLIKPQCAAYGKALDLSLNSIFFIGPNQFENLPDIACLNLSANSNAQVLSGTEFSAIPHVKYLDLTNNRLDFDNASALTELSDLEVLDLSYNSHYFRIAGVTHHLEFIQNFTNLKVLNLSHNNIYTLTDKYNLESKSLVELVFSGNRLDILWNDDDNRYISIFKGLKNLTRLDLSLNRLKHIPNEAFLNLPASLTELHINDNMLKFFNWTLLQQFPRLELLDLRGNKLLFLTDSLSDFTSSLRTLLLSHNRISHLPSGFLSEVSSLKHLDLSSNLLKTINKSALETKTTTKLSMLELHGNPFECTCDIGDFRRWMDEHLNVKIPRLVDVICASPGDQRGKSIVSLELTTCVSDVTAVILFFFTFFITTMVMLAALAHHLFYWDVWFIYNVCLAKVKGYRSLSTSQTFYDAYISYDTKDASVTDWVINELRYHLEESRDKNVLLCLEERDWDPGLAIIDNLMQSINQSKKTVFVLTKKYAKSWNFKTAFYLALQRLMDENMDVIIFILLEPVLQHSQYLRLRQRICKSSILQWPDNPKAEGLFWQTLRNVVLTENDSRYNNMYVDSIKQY
The experiment in a line: TLR8 inhibition reporter assay (HEK-Blue cells, SEAP reporter, R848 stimulation). To be noted: HEK-Blue cells overexpressing human TLR8, SEAP reporter, R848 15.9 μM. Put shortly: (§1)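 HEK-Blue cells overexpressing the receptor, with NF-κB/AP-1-driven SEAP, were pre-treated 30 min at room temperature with compound (0.05 nM–50 μM), then stimulated with gardiquimod 7.5 μM (TLR7), R848 15.9 μM (TLR8) or ODN2006 5 nM (TLR9). SEAP was read after 22 h at 37 °C as percent inhibition.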
For orientation: A reporter such as luciferase makes a cellular process visible.

A further assay concerns the target T2, human TLR7 (Homo sapiens, UniProt Q9NYK1).
T2 construct: host or cells: HEK-Blue cells (HEK293-derived reporter line)
T2 sequence (Q9NYK1 27-1049): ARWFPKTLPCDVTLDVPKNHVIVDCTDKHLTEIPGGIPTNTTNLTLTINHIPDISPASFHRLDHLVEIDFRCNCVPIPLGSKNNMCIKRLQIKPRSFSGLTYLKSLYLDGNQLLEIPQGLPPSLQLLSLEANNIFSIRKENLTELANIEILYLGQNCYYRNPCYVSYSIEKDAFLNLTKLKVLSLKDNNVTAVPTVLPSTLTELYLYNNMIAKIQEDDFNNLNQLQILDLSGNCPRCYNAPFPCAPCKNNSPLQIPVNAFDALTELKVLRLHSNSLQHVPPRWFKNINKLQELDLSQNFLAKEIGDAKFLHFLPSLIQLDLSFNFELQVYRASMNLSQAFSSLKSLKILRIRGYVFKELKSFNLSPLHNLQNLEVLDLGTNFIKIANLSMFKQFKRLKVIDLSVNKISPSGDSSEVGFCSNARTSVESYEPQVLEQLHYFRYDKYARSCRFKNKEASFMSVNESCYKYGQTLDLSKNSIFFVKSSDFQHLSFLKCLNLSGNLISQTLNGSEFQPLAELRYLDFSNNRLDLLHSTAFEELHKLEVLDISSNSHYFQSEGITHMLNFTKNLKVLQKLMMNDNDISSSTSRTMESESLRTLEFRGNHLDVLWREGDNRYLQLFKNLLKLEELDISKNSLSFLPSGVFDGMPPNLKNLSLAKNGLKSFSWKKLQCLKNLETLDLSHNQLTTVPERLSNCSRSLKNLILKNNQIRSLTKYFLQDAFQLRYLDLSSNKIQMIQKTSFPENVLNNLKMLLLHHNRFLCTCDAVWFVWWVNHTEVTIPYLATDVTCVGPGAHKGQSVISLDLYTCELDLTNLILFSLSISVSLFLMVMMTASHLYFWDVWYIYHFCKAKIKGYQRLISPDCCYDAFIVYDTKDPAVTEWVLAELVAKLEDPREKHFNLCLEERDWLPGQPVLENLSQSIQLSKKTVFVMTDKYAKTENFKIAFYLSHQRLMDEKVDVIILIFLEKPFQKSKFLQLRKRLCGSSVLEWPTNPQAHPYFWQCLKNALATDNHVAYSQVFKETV
The experiment in a line: TLR7 inhibition reporter assay (HEK-Blue cells, SEAP reporter, gardiquimod stimulation). Particulars: HEK-Blue cells overexpressing human TLR7, SEAP reporter, gardiquimod 7.5 μM. Put shortly: as §1

The target of a further assay is T3, human TLR9 (Homo sapiens, UniProt Q9NR96).
T3 construct: host or cells: HEK-Blue cells (HEK293-derived reporter line)
T3 sequence (Q9NR96 26-1032): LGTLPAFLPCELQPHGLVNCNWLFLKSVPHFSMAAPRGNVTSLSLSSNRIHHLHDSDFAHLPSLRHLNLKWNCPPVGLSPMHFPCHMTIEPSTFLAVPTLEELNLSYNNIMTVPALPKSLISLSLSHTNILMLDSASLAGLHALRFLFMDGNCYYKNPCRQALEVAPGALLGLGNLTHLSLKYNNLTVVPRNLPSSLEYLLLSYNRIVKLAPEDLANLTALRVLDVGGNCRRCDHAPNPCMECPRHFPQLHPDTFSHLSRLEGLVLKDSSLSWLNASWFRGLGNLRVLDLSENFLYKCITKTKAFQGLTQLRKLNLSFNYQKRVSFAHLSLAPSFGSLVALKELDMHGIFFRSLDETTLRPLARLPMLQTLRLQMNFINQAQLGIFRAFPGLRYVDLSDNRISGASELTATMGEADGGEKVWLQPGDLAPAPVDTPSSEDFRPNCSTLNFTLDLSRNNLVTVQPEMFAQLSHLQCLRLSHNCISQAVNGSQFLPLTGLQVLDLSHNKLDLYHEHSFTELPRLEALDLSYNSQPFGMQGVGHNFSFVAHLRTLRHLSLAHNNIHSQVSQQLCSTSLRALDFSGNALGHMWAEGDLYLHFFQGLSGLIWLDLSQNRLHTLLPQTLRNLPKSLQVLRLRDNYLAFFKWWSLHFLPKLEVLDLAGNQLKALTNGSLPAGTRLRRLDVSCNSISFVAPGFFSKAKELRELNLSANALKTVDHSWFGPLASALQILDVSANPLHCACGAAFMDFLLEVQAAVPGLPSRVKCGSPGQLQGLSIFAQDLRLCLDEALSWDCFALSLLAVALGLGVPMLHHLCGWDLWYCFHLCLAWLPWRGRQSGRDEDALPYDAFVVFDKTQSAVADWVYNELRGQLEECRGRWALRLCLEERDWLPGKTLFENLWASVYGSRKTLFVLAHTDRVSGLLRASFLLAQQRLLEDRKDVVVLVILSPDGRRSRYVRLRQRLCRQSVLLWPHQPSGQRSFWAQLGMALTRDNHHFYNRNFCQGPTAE
The experiment in a line: TLR9 inhibition reporter assay (HEK-Blue cells, SEAP reporter, ODN2006 stimulation). Particulars: HEK-Blue cells overexpressing human TLR9, SEAP reporter, ODN2006 5 nM. In outline: as §1

One may read the IC50 as the concentration that inhibits the measured activity by half. Read a high IC50 as lower potency.

In the case of `CNC(=O)CN1CCC(c2ccc3[nH]c(-c4cc(C(F)(F)F)c5nccn5c4)c(C(C)C)c3c2)CC1` [Example 373, 2-(4-(3-isopropyl-2-(8-(trifluoromethyl)imidazo[1,2-a]pyridin-6-yl)-1H-indol-5-yl)piperidin-1-yl)-N-methylacetamide], the concentration for half-maximal inhibition (IC50) on human TLR8 was less than 0.1 µM; at human TLR7, less than 0.1 µM; against human TLR9, 1 to 50 µM.
For `CC(C)c1c(-c2ccc3nccn3n2)[nH]c2ccc(C3CCNCC3)cc12` [Example 27, 6-(3-isopropyl-5-(piperidin-4-yl)-1H-indol-2-yl)imidazo[1,2-b]pyridazine], the 50% inhibitory concentration (IC50) at human TLR8 was less than 0.1 µM; against human TLR7, less than 0.1 µM; at human TLR9, 1 to 50 µM.
Turning to `Cc1nc[nH]c1CN1CCC(c2ccc3[nH]c(-c4ccnc5[nH]cnc45)c(C(C)C)c3c2)CC1` [Example 861, 7-(3-isopropyl-5-(1-((4-methyl-1H-imidazol-5-yl)methyl)piperidin-4-yl)-1H-indol-2-yl)-3H-imidazo[4,5-b]pyridine], the values for the concentration for half-maximal inhibition (IC50) against human TLR8, on human TLR7 and on human TLR9 were less than 0.1 µM, less than 0.1 µM and 0.1 to 1 µM, respectively.
On to `Cc1cc2cc(-c3[nH]c4ccc(C5CCNCC5)cc4c3C(C)C)cc(C)n2n1` [Example 142, 5-(3-isopropyl-5-(piperidin-4-yl)-1H-indol-2-yl)-2,7-dimethylpyrazolo[1,5-a]pyridine], for which the figures for the IC50 against human TLR8, at human TLR7 and against human TLR9 were less than 0.1 µM, less than 0.1 µM and 1 to 50 µM, respectively.
On to `Cc1cn2cc(-c3[nH]c4ccc(C5CCNCC5)cc4c3C(C)C)cc(C)c2n1` [Example 120, 6-(3-isopropyl-5-(piperidin-4-yl)-1H-indol-2-yl)-2,8-dimethylimidazo[1,2-a]pyridine], for which the 50% inhibitory concentration (IC50) on human TLR8 was less than 0.1 µM; at human TLR7, less than 0.1 µM; at human TLR9, 0.1 to 1 µM.
`Cc1cc2cc(-c3[nH]c4ccc(C5CCN(C(=O)CN(C)C)CC5)cc4c3C(C)C)ccn2n1` [Example 535, 2-(dimethylamino)-1-(4-(3-isopropyl-2-(2-methylpyrazolo[1,5-a]pyridin-5-yl)-1H-indol-5-yl)piperidin-1-yl)ethan-1-one]: the half-inhibitory concentration (IC50) against human TLR8 lay within 1 to 50 µM; against human TLR7, 0.1 to 1 µM; at human TLR9, 1 to 50 µM.
As to `CC(C)c1c(-c2ccc(C#N)c3ncccc23)[nH]c2ccc(C3CCN(CC(C)(C)O)CC3)cc12` [Example 766, 5-(5-(1-(2-hydroxy-2-methylpropyl)piperidin-4-yl)-3-isopropyl-1H-indol-2-yl)quinoline-8-carbonitrile], the IC50 at human TLR8 is less than 0.1 µM; on human TLR7, less than 0.1 µM; against human TLR9, 1 to 50 µM.
As to `CCc1c(-c2ccnc3[nH]ncc23)[nH]c2ccc(C3CCN(Cc4c[nH]c(-c5ccccc5)n4)CC3)cc12` [Example 908, 4-(3-ethyl-5-(1-((2-phenyl-1H-imidazol-4-yl)methyl)piperidin-4-yl)-1H-indol-2-yl)-1H-pyrazolo[3,4-b]pyridine], the half-inhibitory concentration (IC50) lay within 0.1 to 1 µM against human TLR8, 0.1 to 1 µM against human TLR7 and 1 to 50 µM against human TLR9.
For the molecule `Cc1cc(-c2[nH]c3ccc(C4CCNCC4)cc3c2C(C)C)cc2cccnc12` [Example 141, 6-(3-isopropyl-5-(piperidin-4-yl)-1H-indol-2-yl)-8-methylquinoline], the results for the half-maximal inhibitory concentration (IC50) on human TLR8, against human TLR7 and against human TLR9 were less than 0.1 µM, less than 0.1 µM and 1 to 50 µM, respectively.
Turning to `Cc1nnn2ccc(-c3[nH]c4ccc(C5CCN(CC(N)=O)CC5)cc4c3C(C)C)cc12` [Example 317, 2-(4-(3-isopropyl-2-(3-methyl-[1,2,3]triazolo[1,5-a]pyridin-5-yl)-1H-indol-5-yl)piperidin-1-yl)acetamide], the IC50 at human TLR8 is less than 0.1 µM; on human TLR7 it was less than 0.1 µM; at human TLR9, 1 to 50 µM.
For `CC(C)c1c(-c2cc(CO)c3nnnn3c2)[nH]c2ccc(C3CCN(C4COC4)CC3)cc12` [Example 738, (6-(3-isopropyl-5-(1-(oxetan-3-yl)piperidin-4-yl)-1H-indol-2-yl)tetrazolo[1,5-a]pyridin-8-yl)methanol], the IC50 was less than 0.1 µM at human TLR8, less than 0.1 µM against human TLR7 and 1 to 50 µM against human TLR9.
Turning to `CC(C)c1c(-c2cnc3ccnn3c2)[nH]c2ccc(C3CCN(CC(=O)N(C)C)CC3)cc12` [Example 359, 2-(4-(3-isopropyl-2-(pyrazolo[1,5-a]pyrimidin-6-yl)-1H-indol-5-yl)piperidin-1-yl)-N,N-dimethylacetamide], the IC50 on human TLR8 was greater than 3.13 µM; against human TLR7, 1 to 50 µM; on human TLR9 it was 1 to 50 µM.
For the molecule `CC(C)c1c(-c2ccc(C#N)c3ncccc23)[nH]c2ccc(C3CCN(CC(=O)N(C)C)CC3)cc12` [Example 370, 2-(4-(2-(8-cyanoquinolin-5-yl)-3-isopropyl-1H-indol-5-yl)piperidin-1-yl)-N,N-dimethylacetamide], the IC50 is less than 0.1 µM against human TLR8, less than 0.1 µM against human TLR7 and 1 to 50 µM against human TLR9.
